Molecular target: T1, DRD1 (Homo sapiens, UniProt P21728)
T1 construct: purchased Promega (in-house HiBiT-GPCR construct library, NanoBRET)
Experiment: NanoBRET screen HiBiT-DRD1 in HEK293
Type: binding
Method: Each tracer candidate was screened across the entire library of HiBiT-GPCR constructs using NanoBRET as the detection modality. As depicted in Figure 4A, the specificity of interactions was evaluated through decrease in BRET due to competitive displacement of a bound tracer by excess parental compound. Each tracer was analyzed for binding to each HiBiT-GPCR fusion in the absence and in the presence of competing parental compound. Briefly, HEK293 cells were transfected with HiBiT-GPCR constructs diluted into promoterless DNA to reduce expression and maximize translocation to the cell surface. Each tracer candidate was then screened at concentrations of 1 μM and 0.1 μM across cells expressing these fusions. Cells were treated for 1.5 h with tracer either alone or in the presence of 20 μM competing parental compound (i.e., control). BRET was measured upon addition of purified LgBiT and subsequent complementation with HiBiT genetically fused to a GPCR. The specificity of interactions was assessed through a decrease in BRET signal due to competitive displacement of the bound tracer. To further gauge the robustness of these interactions, the fold response over the control (i.e., BRETtracer/BRETcontrol) was calculated. We chose a 1.5-fold response, which translates to ≥7-fold signal over noise as the minimal threshold required to score an interaction as positive.
HiBiT-GPCR DNA constructs were diluted in 10 mM Tris pH 8 to a final concentration of 0.01 μg/μL, arrayed in 96-well plates and stored at −20 °C. For transfection, HEK293 cells were suspended in Opti-MEM (without phenol red) supplemented with 2% fetal bovine serum (Seradigm) and 100 units/mL penicillin–streptomycin (Gibco) at a final concentration of 220,000 cells/mL and dispensed into white 96-well plates at 90 μL/well. Subsequent transfections and screens were carried using an Agilent Bravo Automated Liquid Handling Platform. First, the 96-well HiBiT DNA arrays were diluted 25-fold in Opti-MEM (without serum or phenol red) to a final concentration of 0.0004 μg/μL and 20 μL of the diluted DNAs were transferred into new 96-well plates. Next, promoterless carrier DNA (1 μg/μL) was diluted 25-fold (0.04 μg/μL) and then dispensed into the diluted arrays at 20 μL/well. Following brief mixing, Viafect transfection reagent (Promega) diluted 16-fold into Opti-MEM was dispensed into the plates at 40 μL/well. After mixing by pipetting, plates were incubated for 10 min on the pipetting station deck. The DNA-transfection reagent complexes were then added to plates containing cells. To facilitate the screen, 10 μL of DNA-transfection reagent complexes were added in duplicates to the top 4 and bottom 4 rows, resulting in two identical 48-well arrays per plate. Plates with transfected cells were incubated for 18–20 h at 37 °C/5% CO2. A screen of each tracer across the entire library using two different concentrations requires duplicate plates of transfected cells. Depending on the number of tracers being screened, transfections can be scaled up using the same ratios. The next day, for each tracer, four 20× screening solutions in tracer dilution buffer (Promega) were prepared: two duplicates at final concentration of 20 μM and two duplicates at a final concentration of 2 μM. […] The four resulting solutions were diluted 4-fold in Opti-MEM without serum or phenol red to generate 5× solutions (5 µM and 0.5 µM tracer +/− 100 μM competing compound). To screen the library, a BioTek MultiFlo FX liquid dispenser was used to dispense 22.5 µL of tracer solution to the top 4 rows and 22.5 µL tracer + competing compound solution to the 4 bottom rows. Plates were briefly mixed on an orbital shaker and incubated for 1.5 h at room temperature. […] Plates were briefly mixed on an orbital shaker and incubated for 15 min to allow complementation.

T1 sequence (P21728 whole entry): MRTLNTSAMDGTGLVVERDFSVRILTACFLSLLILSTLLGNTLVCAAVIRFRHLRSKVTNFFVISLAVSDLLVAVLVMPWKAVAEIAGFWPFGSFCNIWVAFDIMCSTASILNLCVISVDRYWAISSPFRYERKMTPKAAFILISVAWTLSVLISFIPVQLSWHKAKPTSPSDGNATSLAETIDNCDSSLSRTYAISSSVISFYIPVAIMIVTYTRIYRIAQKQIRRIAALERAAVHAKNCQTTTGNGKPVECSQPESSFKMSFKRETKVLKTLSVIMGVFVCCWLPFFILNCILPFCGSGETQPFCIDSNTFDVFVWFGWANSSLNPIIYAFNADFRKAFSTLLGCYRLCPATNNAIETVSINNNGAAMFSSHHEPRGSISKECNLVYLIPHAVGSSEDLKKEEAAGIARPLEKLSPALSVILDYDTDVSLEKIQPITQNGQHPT

Structure (SMILES)	NanoBRET Fold Response (DRD1, tracer 0.1μM)	NanoBRET Fold Response (DRD1, tracer 1μM)	also measured
O=C(CCc1ccc2n1[B-](F)(F)[N+]1=C(c3ccc[nH]3)C=CC1=C2)NCc1ccc(C(=O)NCCOCCC(=O)N[C@@H]2CC[C@@]3(O)[C@H]4Cc5ccc(O)c6c5[C@@]3(CCN4CC3CC3)[C@H]2O6)cc1 [Naltrexone-3-NB590]	0.98	1.03	–
CCCn1c(=O)c2[nH]c(-c3ccc(OCC(=O)NCCNC(=O)CCOCCNC(=O)c4ccc(CNC(=O)CCc5ccc6n5[B-](F)(F)[N+]5=C(c7ccc[nH]7)C=CC5=C6)cc4)cc3)nc2n(CCC)c1=O [XAC-3-NB590]	0.90	1.11	–
CC(C)N(CC[C@H](c1ccccc1)c1cc(CCNC(=O)c2ccc(CNC(=O)CCc3ccc4n3[B-](F)(F)[N+]3=C(c5ccc[nH]5)C=CC3=C4)cc2)ccc1O)C(C)C [Tolterodine-BZ-NB590]	1.28	1.39	–
N#CN/C(=N\CCNC(=O)c1ccc(N)cc1)NCCCOc1cccc(CN2CCCCC2)c1 [Aminopotentidine (unmodified)]	–	–	NanoBRET Fold Response (DRD1, other tracers/Aminopotentidine (unmodified), 0.1μM): 1.10; NanoBRET Fold Response (DRD1, other tracers/Aminopotentidine (unmodified), 1μM): 1.11
COc1ccc2[nH]c(-c3ccc(CNC(=O)CCOCCOCCOCCOCCNC(=O)CCc4ccc5n4[B-](F)(F)[N+]4=C(c6ccc[nH]6)C=CC4=C5)cc3)c(CCNC(C)=O)c2n1 [AzomelatoninICO9-2-NB590]	–	–	NanoBRET Fold Response (0.1μM tracer): 0.98; NanoBRET Fold Response (1μM tracer): 0.94
COc1ccccc1N1CCN(CCCCN2C(=O)c3ccc(CNC(=O)CCOCCNC(=O)c4ccc(CNC(=O)CCc5ccc6n5[B-](F)(F)[N+]5=C(c7ccc[nH]7)C=CC5=C6)cc4)cc3C2=O)CC1 [NAN-190-3-NB590]	1.75	1.32	–
Cc1nc2n(c(=O)c1CCN1CCC(c3noc4cc(F)ccc34)CC1)CCCC2OC(=O)NCCOCCOCCOCCOCCNC(=O)CCc1ccc2n1[B-](F)(F)[N+]1=C(c3ccc[nH]3)C=CC1=C2 (stereo not drawn) [Risperidone-2-NB590]	2.20	2.38	–
O=C(CCOCCOCCOCCOCCNC(=O)CCc1ccc2n1[B-](F)(F)[N+]1=C(c3ccc[nH]3)C=CC1=C2)NCCCN1CCN(C2=Nc3ccccc3Oc3ccc(Cl)cc32)CC1 [Loxapine-a-2-NB590]	1.65	2.64	–
COc1ccccc1N1CCN(CCCCN2C(=O)c3ccc(CNC(=O)CCOCCOCCOCCOCCNC(=O)CCc4ccc5n4[B-](F)(F)[N+]4=C(c6ccc[nH]6)C=CC4=C5)cc3C2=O)CC1 [NAN-190-2-NB590]	1.23	1.53	–
CC(C)N(CC[C@H](c1ccccc1)c1cc(CCNC(=O)CCOCCOCCOCCOCCNC(=O)CCc2ccc3n2[B-](F)(F)[N+]2=C(c4ccc[nH]4)C=CC2=C3)ccc1O)C(C)C [Tolterodine-2-NB590]	0.94	1.01	–
N#CN=C(NCCCOc1cccc(CN2CCCCC2)c1)NCCNC(=O)CCOCCOCCOCCOCCNC(=O)CCc1ccc2n1[B-](F)(F)[N+]1=C(c3ccc[nH]3)C=CC1=C2 [Aminopotentidine-2-NB590]	1.04	1.06	–
CCOC(=O)c1cc(C#N)c(N2CCC(C(=O)NS(=O)(=O)Cc3ccccc3/C=C/C(=O)NCCNC(=O)CCc3ccc4n3[B-](F)(F)[N+]3=C(c5ccc[nH]5)C=CC3=C4)CC2)nc1C [AZD1283-1-NB590]	–	–	NanoBRET Fold Response (DRD1, 0.1μM): 1.07; NanoBRET Fold Response (DRD1, 1μM): 1.10
CN(C)CCC=C1c2ccccc2CCc2ccc(C(=O)NCCNC(=O)CCOCCOCCOCCOCCNC(=O)CCc3ccc4n3[B-](F)(F)[N+]3=C(c5ccc[nH]5)C=CC3=C4)cc21 [Amitriptyline-b-2-NB590]	–	–	NanoBRET Fold Response (tracer at 0.1μM, listed as amitriptyline-b-2-NB590): 1.39; NanoBRET Fold Response (tracer at 1μM, listed as amitriptyline-b-2-NB590): 1.97
CN(C)CCC=C1c2ccccc2CCc2ccc(C(=O)NCCNC(=O)CCOCCOCCOCCOCCNC(=O)CCc3ccc4n3[B-](F)(F)[N+]3=C(c5ccc[nH]5)C=CC3=C4)cc21 [Amitriptyline-a-2-NB590]	–	–	NanoBRET Fold Response (tracer at 0.1μM): 1.04; NanoBRET Fold Response (tracer at 1μM): 1.23
O=C(CCc1ccc2n1[B-](F)(F)[N+]1=C(c3ccc[nH]3)C=CC1=C2)NCCOCCOCCNC(=O)OCCOCCN1CCN(C2=Nc3ccccc3Sc3ccccc32)CC1 [Quetiapine-a-2-NB590]	1.65	1.97	–
Cc1cc2c(s1)Nc1ccccc1N=C2N1CCN(CCCNC(=O)CCOCCOCCOCCOCCNC(=O)CCc2ccc3n2[B-](F)(F)[N+]2=C(c4ccc[nH]4)C=CC2=C3)CC1 [Olanzapine-a-2-NB590]	2.04	3.08	–
COc1ccc2c(n1)c(CCNC(C)=O)cn2CCNC(=O)CCc1ccc2n1[B-](F)(F)[N+]1=C(c3ccc[nH]3)C=CC1=C2 [Azamelatonin-1-NB590]	–	–	NanoBRET Fold Response (0.1μM tracer): 0.92; NanoBRET Fold Response (1μM tracer): 0.96
CN(CCC=C1c2ccccc2CCc2ccccc21)C(=O)CCOCCOCCOCCOCCNC(=O)CCc1ccc2n1[B-](F)(F)[N+]1=C(c3ccc[nH]3)C=CC1=C2 [Amitriptyline-e-2-NB590]	–	–	NanoBRET Fold Response (tracer at 1μM): 1.12
O=C(CCc1ccc2n1[B-](F)(F)[N+]1=C(c3ccc[nH]3)C=CC1=C2)NCc1ccc(C(=O)NCCOCCOCCNCC(O)COc2cccc3ccccc23)cc1 (stereo not drawn) [Propranolol-3-NB590]	–	–	NanoBRET Fold Response (DRD1, 0.1μM): 1.01; NanoBRET Fold Response (DRD1, 1μM): 0.98
O=C(CCOCCOCCOCCOCCNC(=O)CCc1ccc2n1[B-](F)(F)[N+]1=C(c3ccc[nH]3)C=CC1=C2)NCCCN1CCN(C2=Nc3cc(Cl)ccc3Nc3ccccc32)CC1 [Clozapine-a-2-NB590]	–	–	NanoBRET Fold Response (DRD1, 0.1μM tracer): 3.20; NanoBRET Fold Response (DRD1, 1μM tracer): 3.32

— paper PMC8151276, “An Integrated Approach toward NanoBRET Tracers for Analysis of GPCR Ligand Engagement” (Molecules, 2021)
